Reference: patent publication US4775695A, “Substituted amidinoalkoxy and amidinoalkylamino indanones and salts thereof” (Merck & Co., Inc., priority 1987, dated 1988)
Counter-ions that a name gives are not always drawn.

System: cerebrocortical cat brain tissue slices
Assay: In vitro Cerebrocortical Cat Brain Tissue Slice Assay (inhibition of HCO3^- -stimulated swelling)
Conditions: 60 minutes, 37° C., 10 mM HCO3^-, 27 mM K^+
Protocol: See, e.g., Bourke et al., Neurochem. Res., 8, 5 (1983), and Cragoe et al., J. Med. Chem., 25, 567 (1982).
Adult cats of 2-3 kg body weight were employed in tissue slice studies. Prior to sacrifice, the animals were anesthetized with ketamine hydrochloride, 10 mg/kg intramuscularly. Eight (three control, five experimental) pial surface cerebrocortical tissue slices (0.5 mm thick; approximately 150 mg initial fresh weight) were cut successively with a calibrated Stadie-Riggs fresh tissue microtome without moistening and weighed successively on a torsion balance. During the slice preparation all operations except weighing were confined to a humid chamber. Each slice was rapidly placed in an individual Warburg flask containing 2 ml of incubation medium at room temperature. The basic composition of the incubation media was as follows: glucose, 10 mM; CaCl2, 1.3 mM; MgSO4, 1.2 mM; KHSO4, 1.2 mM; HEPES (N-2-hydroxyethylpiperazine-N'-2-ethanesulfonic acid, titrated with NaOH to pH 7.4), 20 mM. Except when adding HCO3^-, the osmolarity of the media was maintained isosmotic (approximately 285 mOsm/L) by reciprocal changes of Na^+ or K^+ to achieve a concentration of K^+ of 27 mM. The basic medium was saturated with oxygen by bubbling pure oxygen through the solution for 30 minutes before use. […]
Following the 60-minute incubation period, tissue slices were separated from incubation medium by filtration, reweighed, and homogenized in 1N HClO4 (10% w/v) for electrolyte analysis. […] Control slice swelling is expressed as microliters per gram initial preswelling fresh weight. The effectiveness of an inhibitor at a given concentration was measured by the amount of HCO3^- -stimulated swelling that occurred in its presence, computed as a percent of the maximum possible and is reported as an IC50. […] Tissue and media Na^+ and K^+ levels were determined by emission flame photometry with Li^+ internal standard; Cl^- levels were determined by amperometric titration. Tissue viability during incubation is monitored by manometry.

IC50 (hydrate) [µM] | IC50 (Felis catus, 1 h) [µM] | SMILES
0.1 |  | CC1(C2CCCC2)Cc2cc(OCC(=N)N)c(Cl)c(Cl)c2C1=O (single isomer, unassigned; (+)) [Example 6, (+)[(2-Cyclopentyl-6,7-dichloro-2,3-dihydro-2-methyl-1-oxo-1H-inden-5-yl)oxy]ethanimidamide hydrochloride 1/4 hydrate]
0.005 |  | CC1(C2CCCC2)Cc2cc(OCC(=N)N)c(Cl)c(Cl)c2C1=O (single isomer, unassigned; (-)) [Example 7, (-)[(2-Cyclopentyl-6,7-dichloro-2,3-dihydro-2-methyl-1-oxo-1H-inden-5-yl)oxy]ethanimidamide hydrochloride 1/4 hydrate]
 | 0.01 | CC1(C2CCCC2)Cc2cc(OCC(=N)N)c(Cl)c(Cl)c2C1=O (stereo not drawn) [Example 2, [(2-Cyclopentyl-6,7-dichloro-2,3-dihydro-2-methyl-1-oxo-1H-inden-5-yl)oxy]ethanimidamide hydrochloride hemihydrate]
